Measured values taken from patent publication US20240018153A1, “BENZENESULFONAMIDE DERIVATIVES AND USES THEREOF” (2692372 ONTARIO, INC., priority 2020, published 2024).

Tests used:
[1] = target: T1, EGFR (Homo sapiens (Human), UniProt P00533); assay: Time-dependent inhibition of EGFR (HTRF); format: biochemical; details: pre-incubation 0-60 min
Method: For the time-dependent inhibition experiments, the activity of EGFR kinase was monitored using a HTRF® KinEASE-TK kit from Cisbio (62TK0PEC) as described above. Six compounds showing higher potency during dose response analysis against EGFR, were further evaluated for their change in inhibitory potency over time. Ibrutinib was used as a positive control. The selected compounds were pre incubated with the kinase at 11 different concentrations, ranging from […] to 25 uM final compound concentrations. The pre incubation times were 0, 2, 5, 10, 15, 30, 45 and 60 min. After the preincubation, the reaction was initiated by adding biotinylated substrate and ATP and the reaction was allowed to proceed for 45 min. […] The reaction was terminated by adding 31.25 nM SA-XL665 and 100 fold diluted europium labelled antibody (Eu-Ab), diluted in 1× detection buffer that contained EDTA. After 60 min of incubation, the fluorescence emission was measured at 620 nm and 665 nm. The ratio of Em 665 nm to Em 620 nm was proportional to the amount of substrate phosphorylated by the kinase. Product formation vs pre-incubation time data were fitted to a one phase exponential decay equation using GraphPad Prism. The same product formation vs inhibitor concentration data were also fitted to a log(antagonist) vs. response—Variable slope equation in GraphPad Prism to provide IC50 values at different pre incubation times.

[2] = test system: β-Tubulin; assay: K562 cell lysis and immunoassay, β-tubulin degradation; format: cell-based; set-up: key: Y: β-tubulin bound in cells and tubulin degradation occurred; details: K562 cells
Method: K562 cells (ATCC) were cultured in Iscove's Modified Dulbecco's Medium (IMDM) (Wisent) supplemented with 10% FBS and 1% penicillin/streptomycin. Cells were seeded in 6-well plates at 1.71×10^6 cells/well and incubated at 37° C., 5% CO2 for 16 hours. Cells were treated with compounds at the indicated concentrations or DMSO alone and incubated at 37° C., 5% CO2 for 24 hours. Cell suspensions were centrifugated at 1,400 RPM for 5 minutes at room temperature and supernatants were discarded. Cell pellets were resuspended with 1× RIPA buffer (Millipore) and incubated on ice for 15 minutes. Protein lysates were extracted by centrifugating at 20,000 RPM for 20 minutes at 4° C. Proteins were separated and total β-Tubulin levels were quantified by Simple Western Immunoassay (ProteinSimple) using the Protein Normalization Assay Module for Jess (ProteinSimple) according to the manufacturer's protocol, using a protein concentration of 0.05 μg/μl and an antibody targeting β-Tubulin (Abcam) diluted to 1:800. β-Tubulin levels were quantified relative to the Protein Normalization Reagent and subsequently normalized to the DMSO control.

[3] = target: BTK (Homo sapiens (Human), UniProt Q06187); assay: HTRF KinEASE-TK kinase assay, BTK; format: biochemical; details: 3 h preincubation; for remaining activity at 1 µM: 1 μM compound, read-out: % BTK Remaining activity vs DMSO (1 μM, 3 h); for remaining activity at 10 µM: 10 μM compound, read-out: % BTK Remaining activity vs DMSO (10 μM, 3 h)
Sequence of BTK (Q06187 whole entry): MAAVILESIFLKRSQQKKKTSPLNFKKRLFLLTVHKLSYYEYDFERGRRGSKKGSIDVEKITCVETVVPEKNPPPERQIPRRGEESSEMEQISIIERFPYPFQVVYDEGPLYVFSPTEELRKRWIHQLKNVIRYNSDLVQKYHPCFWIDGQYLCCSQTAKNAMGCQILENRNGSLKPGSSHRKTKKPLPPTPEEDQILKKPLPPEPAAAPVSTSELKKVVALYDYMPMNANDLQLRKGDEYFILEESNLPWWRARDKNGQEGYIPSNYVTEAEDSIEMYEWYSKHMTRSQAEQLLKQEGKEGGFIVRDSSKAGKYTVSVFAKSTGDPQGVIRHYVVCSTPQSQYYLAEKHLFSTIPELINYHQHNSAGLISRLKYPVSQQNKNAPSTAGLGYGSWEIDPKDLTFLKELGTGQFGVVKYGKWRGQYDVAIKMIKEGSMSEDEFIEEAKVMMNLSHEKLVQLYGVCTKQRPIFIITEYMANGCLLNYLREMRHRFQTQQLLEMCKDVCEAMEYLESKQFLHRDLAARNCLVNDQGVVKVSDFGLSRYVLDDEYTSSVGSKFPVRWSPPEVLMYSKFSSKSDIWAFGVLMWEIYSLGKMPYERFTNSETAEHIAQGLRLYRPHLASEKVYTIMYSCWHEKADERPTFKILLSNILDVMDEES
Summary of the method: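 Read-out was the 665 nm to 620 nm ratio, taken 60 min after detection, reflecting phosphorylated biotinylated substrate. Before this, BTK reacted 45 min with substrate and ATP in kinase buffer supplemented with MnCl2 (10 mM), MgCl2 (5 mM), ATPγS (1 uM) and TCEP (1 mM).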

[4] = target: His-tagged BTK protein (SEQ ID NO: 1) (Homo sapiens (Human), UniProt Q06187); assay: Intact mass analysis (LC-MS/MS) of covalent modification; format: binding; details: His-tagged BTK (unmodified 32,650 Da) incubated with compound
Sequence of His-tagged BTK protein (SEQ ID NO: 1) (Q06187 other isoform, or with tags, fused parts or gaps): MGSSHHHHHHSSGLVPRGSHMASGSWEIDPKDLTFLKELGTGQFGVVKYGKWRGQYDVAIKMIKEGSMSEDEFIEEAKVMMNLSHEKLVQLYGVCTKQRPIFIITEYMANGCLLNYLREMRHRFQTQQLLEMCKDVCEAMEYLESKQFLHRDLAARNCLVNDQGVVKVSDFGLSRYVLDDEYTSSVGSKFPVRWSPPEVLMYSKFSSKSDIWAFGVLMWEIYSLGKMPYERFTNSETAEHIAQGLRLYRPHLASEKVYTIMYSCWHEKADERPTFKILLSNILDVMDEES
Method: The covalent modification of the proteins with the compounds were evaluated using intact mass analysis by liquid chromatography-mass spectrometry instrument (LC-MS/MS).
The reaction solution (20 μL) was prepared in 96-well plate and contained the protein (2 μM), the compound (100 μM), HEPES buffer (20 mM, pH 8), 2% DMSO, 2% glycerol, and 150 mM NaCl. The reaction was allowed to proceed for 24 h at 25° C. The reaction solution (1 μL) was injected into the LC/MS/MS without any further sample preparation.
The LC-MS/MS instrument comprises of a Waters G2-XS quadrupole-time of flight (QTof) mass spectrometer and a Waters Acuity I-class Ultra-High Performance Liquid Chromatography (UPLC) system. The I-class UPLC system includes a binary solvent manager (BSM), and a Acquity sample manager (SM). The mobile phase consisted of: A) 0.1% (v/v) formic acid in MilliQ water; B) 0.1% (v/v) formic acid acetonitrile. Gradients were run over 5 min and proceeded as follows: A:B, 85:15, 0.0-0.7 min, 85:15→15:85, 0.7-1.5 min, 10:90, 1.5-4 min, 10:90→85:15, 4-4.5 min, 85:15, 4.5-5 min. The analytical column was a Waters BEH C4 column 1.7 μm (50×1 mm) column with pore sizes of […]. The TOF MS data was collected in positive ion mode (m/z of 400-2000 Da) using MassLynx software (Waters).
The spectral deconvolution was performed using UNIFI software (Waters). The added mass of the protein upon covalent modification to cysteine residues were specified. Multiple modification of up to 8 cysteine was allowed. All the adducts with signal intensities of <2% of the base peak were ignored. The % modification was calculated as the adduct signal intensity over the total intensities of the protein peaks and the adducts.

[5] = target: BMX (Homo sapiens (Human), UniProt P51813); assay: HTRF KinEASE-TK kinase assay, BMX; format: biochemical; details: for remaining activity at 1 µM: 1 uM compound; for remaining activity at 1 µM / remaining activity at 10 µM: 3 h preincubation; for remaining activity at 10 µM: 10 uM compound
Sequence of BMX (P51813 whole entry): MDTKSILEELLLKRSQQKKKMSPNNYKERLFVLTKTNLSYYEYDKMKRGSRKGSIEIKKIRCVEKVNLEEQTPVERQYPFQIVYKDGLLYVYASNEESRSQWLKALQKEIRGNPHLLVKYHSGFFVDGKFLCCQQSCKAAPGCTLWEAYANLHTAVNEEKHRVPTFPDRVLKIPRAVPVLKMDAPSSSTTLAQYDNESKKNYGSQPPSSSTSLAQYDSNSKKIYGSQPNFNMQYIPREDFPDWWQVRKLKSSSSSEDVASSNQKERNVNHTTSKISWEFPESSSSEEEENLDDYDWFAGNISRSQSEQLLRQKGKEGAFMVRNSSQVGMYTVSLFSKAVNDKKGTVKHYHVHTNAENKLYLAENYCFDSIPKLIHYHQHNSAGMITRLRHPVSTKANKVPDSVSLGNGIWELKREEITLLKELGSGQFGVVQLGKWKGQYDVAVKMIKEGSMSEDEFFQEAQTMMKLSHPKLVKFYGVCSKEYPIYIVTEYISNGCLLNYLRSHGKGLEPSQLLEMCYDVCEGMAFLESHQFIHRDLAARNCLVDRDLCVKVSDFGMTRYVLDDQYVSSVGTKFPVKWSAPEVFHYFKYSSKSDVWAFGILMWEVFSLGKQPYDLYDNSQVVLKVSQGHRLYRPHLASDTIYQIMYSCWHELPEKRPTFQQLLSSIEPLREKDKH
Summary of the method: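 Phosphorylation was quantified by HTRF KinEASE-TK as the 665/620 nm ratio, read 60 min after EDTA stop with SA-XL665 (31.25 nM) and europium antibody. Before the reaction, 3.03 nM BMX was preincubated with compound for 3 hours at room temperature, and the reaction was started with biotinylated substrate plus ATP.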

[6] = target: FGFR4 (Homo sapiens (Human), UniProt P22455); assay: HTRF KinEASE-TK kinase assay, FGFR4; format: biochemical; details: for remaining activity at 1 µM: read-out: % FGFR4 Remaining activity vs DMSO (1 μM, 3 h); for remaining activity at 10 µM: read-out: % FGFR4 Remaining activity vs DMSO (10 μM, 3 h)
Sequence of FGFR4 (P22455 22-802): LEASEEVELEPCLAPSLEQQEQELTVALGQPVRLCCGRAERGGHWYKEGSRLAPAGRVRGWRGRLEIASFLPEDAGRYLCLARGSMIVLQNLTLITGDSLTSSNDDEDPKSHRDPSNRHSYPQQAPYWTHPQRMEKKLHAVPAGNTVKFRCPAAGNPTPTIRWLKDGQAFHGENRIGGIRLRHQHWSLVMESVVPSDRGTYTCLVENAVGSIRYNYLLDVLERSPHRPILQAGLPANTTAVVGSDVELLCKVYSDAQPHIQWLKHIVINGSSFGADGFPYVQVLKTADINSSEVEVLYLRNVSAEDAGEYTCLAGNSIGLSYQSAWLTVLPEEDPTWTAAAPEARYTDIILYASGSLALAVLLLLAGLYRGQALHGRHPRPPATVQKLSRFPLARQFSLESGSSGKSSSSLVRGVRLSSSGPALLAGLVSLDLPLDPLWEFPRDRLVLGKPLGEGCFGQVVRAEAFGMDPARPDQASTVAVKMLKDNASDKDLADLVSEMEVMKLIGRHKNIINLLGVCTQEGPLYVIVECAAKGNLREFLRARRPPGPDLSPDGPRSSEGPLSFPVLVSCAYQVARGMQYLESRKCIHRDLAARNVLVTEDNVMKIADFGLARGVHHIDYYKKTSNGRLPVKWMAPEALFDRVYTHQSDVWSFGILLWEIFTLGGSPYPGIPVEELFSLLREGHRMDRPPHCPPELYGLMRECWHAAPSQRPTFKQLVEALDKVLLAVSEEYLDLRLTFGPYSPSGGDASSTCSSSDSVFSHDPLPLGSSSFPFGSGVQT
Summary of the method: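 HTRF ratio (Em 665/620 nm) measured 60 min after EDTA stop with SA-XL665 (31.25 nM) and europium antibody reflects phosphorylated biotinylated substrate. Before substrate/ATP addition, 5.12 nM (0.333 ng/ul) FGFR4 sat with compound 3 h at room temperature.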

[7] = target: JAK3 (Homo sapiens (Human), UniProt P52333); assay: HTRF KinEASE-TK kinase assay, JAK3; format: biochemical; details: for remaining activity at 1 µM: read-out: % JAK3 Remaining activity vs DMSO (1 μM, 3 h); for remaining activity at 10 µM: read-out: % JAK3 Remaining activity vs DMSO (10 μM, 3 h)
Sequence of JAK3 (P52333 781-1124): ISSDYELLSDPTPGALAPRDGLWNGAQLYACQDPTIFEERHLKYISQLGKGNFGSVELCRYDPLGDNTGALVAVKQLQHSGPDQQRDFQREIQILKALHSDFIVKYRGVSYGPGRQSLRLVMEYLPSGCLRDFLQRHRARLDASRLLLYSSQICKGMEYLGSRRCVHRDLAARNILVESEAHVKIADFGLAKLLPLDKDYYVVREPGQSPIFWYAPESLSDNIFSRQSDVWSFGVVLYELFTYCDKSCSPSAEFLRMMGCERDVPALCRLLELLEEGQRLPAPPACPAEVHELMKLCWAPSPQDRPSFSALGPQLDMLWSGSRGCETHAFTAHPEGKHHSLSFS
Summary of the method: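 HTRF read-out: the Em665/Em620 ratio, measured 60 min after stopping with EDTA, 31.25 nM SA-XL665 and 100-fold diluted Eu-antibody, was taken as phosphorylated substrate. Beforehand, 0.21 nM JAK3 (0.0133 ng/µl) sat with compound for 3 h at room temperature, then biotinylated substrate plus ATP started the reaction.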

[8] = target: T1, EGFR; assay: HTRF KinEASE-TK kinase assay, EGFR; format: biochemical; details: 3 h preincubation; for remaining activity at 1 µM: 1 μM compound, read-out: % EGFR Remaining activity vs DMSO (1 μM, 3 h); for remaining activity at 10 µM: 10 μM compound, read-out: % EGFR Remaining activity vs DMSO (10 μM, 3 h)
Summary of the method: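 Buffer contained 5 mM MgCl2, 2 mM MnCl2 and 1 mM TCEP; compounds at two final concentrations, 1 and 10 uM, with 0.5% DMSO, pre-incubated with the enzyme.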

T1 sequence (P00533 25-1210): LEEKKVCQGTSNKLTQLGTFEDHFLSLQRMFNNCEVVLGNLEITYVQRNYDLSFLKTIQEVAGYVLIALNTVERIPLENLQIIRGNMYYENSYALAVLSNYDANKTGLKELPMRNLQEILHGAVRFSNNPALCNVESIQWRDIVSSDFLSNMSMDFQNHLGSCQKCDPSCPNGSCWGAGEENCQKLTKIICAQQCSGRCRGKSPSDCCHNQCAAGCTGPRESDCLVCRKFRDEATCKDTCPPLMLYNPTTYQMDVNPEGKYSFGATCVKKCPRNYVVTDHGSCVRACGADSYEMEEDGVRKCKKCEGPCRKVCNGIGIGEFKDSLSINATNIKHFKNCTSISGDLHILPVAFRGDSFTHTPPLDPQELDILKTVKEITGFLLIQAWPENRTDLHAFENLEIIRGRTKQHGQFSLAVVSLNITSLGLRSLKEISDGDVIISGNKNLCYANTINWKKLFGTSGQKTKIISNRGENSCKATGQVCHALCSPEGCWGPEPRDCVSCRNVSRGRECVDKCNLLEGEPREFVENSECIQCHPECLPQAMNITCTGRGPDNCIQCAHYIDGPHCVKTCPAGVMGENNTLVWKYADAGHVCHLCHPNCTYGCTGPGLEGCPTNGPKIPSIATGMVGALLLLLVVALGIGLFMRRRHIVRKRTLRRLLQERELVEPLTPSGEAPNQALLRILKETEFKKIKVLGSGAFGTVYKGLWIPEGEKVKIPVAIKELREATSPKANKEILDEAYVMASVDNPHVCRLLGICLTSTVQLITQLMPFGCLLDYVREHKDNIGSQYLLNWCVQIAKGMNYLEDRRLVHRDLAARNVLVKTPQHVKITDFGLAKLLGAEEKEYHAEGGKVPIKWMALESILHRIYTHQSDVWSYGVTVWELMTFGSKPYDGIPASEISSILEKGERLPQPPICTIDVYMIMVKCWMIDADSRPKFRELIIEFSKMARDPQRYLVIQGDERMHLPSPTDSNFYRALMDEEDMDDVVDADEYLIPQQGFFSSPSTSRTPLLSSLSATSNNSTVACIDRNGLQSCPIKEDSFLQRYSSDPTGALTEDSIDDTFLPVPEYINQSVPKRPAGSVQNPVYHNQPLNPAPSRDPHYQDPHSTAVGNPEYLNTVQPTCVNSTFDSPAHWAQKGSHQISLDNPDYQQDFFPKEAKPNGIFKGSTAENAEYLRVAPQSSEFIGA

## C=CC(=O)N1CCC[C@@H](n2nc(-c3ccc(Oc4ccccc4)cc3)c3c(N)ncnc32)C1 [ibrutinib, reference compound]
[1]; mono-exponential decay fit
  Time-dependent inhibition of EGFR: product formation versus pre-incubation time: concentration-dependent first order loss of enzyme activity
[1]
  Time-dependent inhibition of EGFR: IC50 values versus pre-incubation time: decrease as pre-incubation times increase

## COc1ccc(OCc2c(F)c(F)c(F)c(F)c2S(C)(=O)=O)cc1F [Compound I-17, 1,2,3,4-tetrafluoro-5-((3-fluoro-4-methoxyphenoxy)methyl)-6-(methylsulfonyl) benzene]
[2]; compound concentration 5
  Beta-tubulin K562, compound concentration, 24 hrs: Y

## COc1ccc(N(C)S(=O)(=O)c2c(F)c(F)c(F)c(F)c2C(F)(F)F)cc1F [Compound I-7, 2,3,4,5-tetrafluoro-N-(3-fluoro-4-methoxyphenyl)-N-methyl-6-(trifluoromethyl) benzenesulfonamide]
[2]
  Beta-tubulin - K562 24 hrs (1 μM): Y
[2]; compound concentration 0.5
  Beta-tubulin K562, compound concentration, 24 hrs: Y

## COc1ccc(/N=C/c2c(F)c(F)c(F)c(F)c2S(C)(=O)=O)cc1F [Compound I-11, (E)-N-(3-fluoro-4-methoxyphenyl)-1-(2,3,4,5-tetrafluoro-6-(methylsulfonyl)phenyl) methanimine]
[2]; compound concentration 0.5
  Beta-tubulin K562, compound concentration, 24 hrs: Y

## COc1ccc(CS(=O)(=O)c2c(F)c(F)c(F)c(F)c2OCc2ccccc2)cc1F [Compound I-16, 1-(benzyloxy)-2,3,4,5-tetrafluoro-6-((3-fluoro-4-methoxybenzyl)sulfonyl)benzene]
[2]; compound concentration 10
  Beta-tubulin K562, compound concentration, 24 hrs: Y

## COc1ccc(NC(=O)c2c(F)c(F)c(F)c(F)c2S(=O)(=O)N(C)C)cc1F [Compound I-9, 2-(N,N-dimethylsulfamoyl)-3,4,5,6-tetrafluoro-N-(3-fluoro-4-methoxyphenyl) benzamide]
[2]; compound concentration 10
  Beta-tubulin K562, compound concentration, 24 hrs: Y

## COc1ccc(CS(=O)(=O)c2c(F)c(F)c(F)c(F)c2OC(F)F)cc1F [Compound I-15, 1-(difluoromethoxy)-2,3,4,5-tetrafluoro-6-((3-fluoro-4-methoxybenzyl)sulfonyl) benzene]
[2]; compound concentration 10
  Beta-tubulin K562, compound concentration, 24 hrs: Y

## COCCOc1ccc(Nc2ncc(F)c(NCCCNS(=O)(=O)c3c(F)c(F)c(F)c(F)c3CF)n2)cc1 [Compound I-56, 2,3,4,5-tetrafluoro-N-(3-((5-fluoro-2-((4-(2-methoxyethoxy)phenyl)amino)pyrimidin-4-yl)amino)propyl)-6-(fluoromethyl)benzenesulfonamide]
[3]
  remaining activity at 1 µM: < 50%
  remaining activity at 10 µM: < 50%
[4]
  covalent adduct mass (intact mass analysis, modification by one molecule): 33,209 Da
[5]
  remaining activity at 1 µM: < 50%
  remaining activity at 10 µM: < 50%
[5]; dose response
  IC50: < 1000 nM
[6]
  remaining activity at 1 µM: 50 to 90%
  remaining activity at 10 µM: < 50%
[7]
  remaining activity at 1 µM: < 50%
  remaining activity at 10 µM: < 50%
[8]
  remaining activity at 1 µM: > 90%
  remaining activity at 10 µM: > 90%

## COc1ccc(NS(=O)(=O)c2c(F)c(F)c(F)c(F)c2C(F)(F)F)cc1F [Compound I-6, 2,3,4,5-tetrafluoro-N-(3-fluoro-4-methoxyphenyl)-6-(trifluoromethyl) benzenesulfonamide]
[2]
  Beta-tubulin - K562 24 hrs (1 μM): Y
[2]; compound concentration 10
  Beta-tubulin K562, compound concentration, 24 hrs: Y

## COCCOc1ccc(Nc2ncc(F)c(NCCCNS(=O)(=O)c3c(F)c(F)c(F)c(F)c3OC(F)F)n2)cc1 [Compound I-55, 2-(difluoromethoxy)-3,4,5,6-tetrafluoro-N-(3-((5-fluoro-2-((4-(2-methoxyethoxy)phenyl)amino)pyrimidin-4-yl)amino)propyl)benzenesulfonamide]
[3]
  remaining activity at 1 µM: < 50%
  remaining activity at 10 µM: < 50%
[4]
  covalent adduct mass (intact mass analysis, modification by one molecule): 33,243 Da
[5]
  remaining activity at 1 µM: < 50%
  remaining activity at 10 µM: < 50%
[6]
  remaining activity at 1 µM: 50 to 90%
  remaining activity at 10 µM: < 50%
[7]; dose response
  IC50: < 1000 nM
[7]
  remaining activity at 1 µM: < 50%
  remaining activity at 10 µM: < 50%
[8]
  remaining activity at 1 µM: > 90%
  remaining activity at 10 µM: > 90%
